Experimental findings from ChEMBL document CHEMBL1201862, “PubChem BioAssay data set” (2004) are described below.

Some test systems named below: 786-0; ACHN; CAKI-1; IGROV-1; M14; NCI-H460; OVCAR-8; RPMI-8226; SF-539; SK-MEL-28; SK-MEL-2; SK-MEL-5; SK-OV-3; SNB-78; SW-620; U-251; LOX IMVI; A498; MCF7; MDA-MB-435.
What all share (experiment): inhibition of tumour cell growth, NCI panel, 48 h

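Five compound concentrations were applied to cells in 96-well plates for 48 hours; endpoints were derived by simple linear interpolation of the resulting dose-response curve. GI50 marks 50% less growth.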 The source made the active and inactive calls. Cut-off read from the data, not from the text of the source: active = GI50 up to about 1.1 µM and inactive = higher.

For `NCCCCN(CCCN)/[N+]([O-])=N\O`, the GI50 in the assay on 786-0, in the assay on ACHN, in the assay on CAKI-1, in the assay with IGROV-1, with M14 and in the assay with NCI-H460 was > 100 µM (inactive) each time. Also, the GI50 in the assay with OVCAR-8, in the assay on RPMI-8226, in the assay with SF-539, in the assay on SK-MEL-28, with SK-MEL-2 and with SK-MEL-5 was > 100 µM (inactive) each time. The GI50 with SK-OV-3, in the assay on SNB-78, in the assay with SW-620 and in the assay with U-251 was > 100 µM (inactive) in each case.

With `NC(=O)NC1C(C(=O)O)N(Cc2ccccc2)C(=O)N1Cc1ccccc1` (configuration not stated), the GI50 in the assay with 786-0, in the assay with ACHN, in the assay on CAKI-1, in the assay on IGROV-1, in the assay with LOX IMVI and in the assay on M14 was > 100 µM (inactive) throughout. For the same molecule, the GI50 in the assay with NCI-H460, in the assay with OVCAR-8, in the assay on RPMI-8226, in the assay with SF-539, in the assay on SK-MEL-28 and in the assay with SK-MEL-2 was > 100 µM (inactive) throughout. Also, the GI50 in the assay on SK-MEL-5, in the assay on SK-OV-3, with SNB-78, in the assay with SW-620 and in the assay with U-251 was > 100 µM (inactive) each time.

With `N#CC(c1ccnc(Cl)n1)c1nc2ccccc2s1` (configuration not stated), the GI50 in the assay on 786-0 is 3.78 µM (inactive); with A498, 15.8 µM (inactive); in the assay with ACHN, 13.7 µM (inactive); in the assay with CAKI-1, 3.87 µM (inactive); in the assay on IGROV-1 it was 3.65 µM (inactive); with LOX IMVI, 3.55 µM (inactive). Also, the GI50 in the assay with M14 is 3.76 µM (inactive); with MCF7, 3.68 µM (inactive); in the assay on MDA-MB-435, 3.92 µM (inactive); with NCI-H460, 3.61 µM (inactive); in the assay on OVCAR-8 it was 3.78 µM (inactive); in the assay with RPMI-8226, 3.54 µM (inactive). Moreover, the GI50 in the assay with SF-539 is 3.88 µM (inactive); in the assay on SK-MEL-28, 10.8 µM (inactive); in the assay on SK-MEL-2, 3.52 µM (inactive); with SK-MEL-5, 1.33 µM (inactive); with SK-OV-3 it was 3.21 µM (inactive); in the assay on SW-620, 4.3 µM (inactive). The GI50 in the assay on U-251 was 3.38 µM (inactive).

On to `COc1ccc(NC2=NCCO2)c2c1CCCC2`, for which the GI50 with 786-0 was 93.5 µM (inactive); in the assay with A498, 61.1 µM (inactive); in the assay with ACHN, 29.6 µM (inactive); in the assay with CAKI-1, 54.1 µM (inactive); in the assay with IGROV-1, 22.8 µM (inactive); in the assay on LOX IMVI it was 29.1 µM (inactive). Moreover, the GI50 is 29.2 µM (inactive) in the assay on M14; 27.4 µM (inactive) in the assay on MCF7; 29.6 µM (inactive) in the assay with MDA-MB-435; 34.5 µM (inactive) with NCI-H460; 36.7 µM (inactive) in the assay with OVCAR-8; 24.6 µM (inactive) with RPMI-8226. The GI50 with SF-539 was 33.2 µM (inactive); in the assay on SK-MEL-28 it was 30.9 µM (inactive); with SK-MEL-2, 18.8 µM (inactive); with SK-MEL-5, 17.5 µM (inactive); in the assay on SK-OV-3, 18.4 µM (inactive); in the assay on SW-620 it was 47.4 µM (inactive). Besides, the GI50 with U-251 was 25.8 µM (inactive).

Regarding `N=C1C(=N)c2ccccc2-c2ccccc21`, the GI50 is 2.09 µM (inactive) in the assay on 786-0; 2.24 µM (inactive) in the assay with A498; 1.41 µM (inactive) in the assay on ACHN; 1.71 µM (inactive) in the assay on CAKI-1; 2 µM (inactive) with IGROV-1; 0.31 µM (active) with LOX IMVI. For the same molecule, the GI50 was 1.05 µM (active) in the assay on M14; 0.792 µM (active) with MCF7; 0.199 µM (active) in the assay on MDA-MB-435; 1.38 µM (inactive) in the assay on NCI-H460; 1.03 µM (active) with OVCAR-8; 0.959 µM (active) with RPMI-8226. Besides, the GI50 was 0.787 µM (active) in the assay on SF-539; 1.35 µM (inactive) in the assay with SK-MEL-28; 1.55 µM (inactive) in the assay on SK-MEL-2; 0.308 µM (active) in the assay with SK-MEL-5; 1.7 µM (inactive) with SK-OV-3; 1 µM (active) in the assay on SW-620. Also, the GI50 in the assay with U-251 is 1.07 µM (active).

As to `Cc1ccc(-c2n[nH]c(=O)n2/N=C\c2ccc([N+](=O)[O-])cc2)cc1`, the GI50 with 786-0 was > 100 µM (inactive); with A498, > 100 µM (inactive); with ACHN, > 80.5 µM (inactive); with CAKI-1, > 100 µM (inactive); in the assay with IGROV-1, > 100 µM (inactive); in the assay on LOX IMVI it was > 100 µM (inactive). Besides, the GI50 is 58.2 µM (inactive) in the assay on M14; 99.5 µM (inactive) with MCF7; 35 µM (inactive) in the assay with MDA-MB-435; > 100 µM (inactive) in the assay with NCI-H460; > 100 µM (inactive) in the assay with OVCAR-8; 76.9 µM (inactive) in the assay with RPMI-8226. Besides, the GI50 in the assay on SF-539 was > 100 µM (inactive); in the assay with SK-MEL-28 it was > 100 µM (inactive); in the assay with SK-MEL-2, > 100 µM (inactive); in the assay with SK-MEL-5 it was 92.9 µM (inactive); in the assay with SK-OV-3, > 100 µM (inactive); with SW-620, > 71.9 µM (inactive). In addition, in the assay with U-251, the GI50 was > 100 µM (inactive).

As to `CCOC(=O)/C(=C\n1c(=O)sc2ccccc21)C(=O)c1ccccc1`, the GI50 was > 100 µM (inactive) in the assay with 786-0; > 100 µM (inactive) with A498; > 100 µM (inactive) with ACHN; 25.4 µM (inactive) with CAKI-1; 20 µM (inactive) with IGROV-1; > 100 µM (inactive) in the assay on LOX IMVI. Also, the GI50 was > 100 µM (inactive) in the assay with M14; > 100 µM (inactive) with MCF7; > 100 µM (inactive) in the assay with MDA-MB-435; > 100 µM (inactive) in the assay on NCI-H460; > 100 µM (inactive) in the assay with OVCAR-8; 39.6 µM (inactive) in the assay on RPMI-8226. The GI50 with SF-539 is > 100 µM (inactive); in the assay with SK-MEL-28 it was > 100 µM (inactive); with SK-MEL-2 it was > 100 µM (inactive); in the assay on SK-MEL-5 it was 54.2 µM (inactive); with SK-OV-3, > 100 µM (inactive); in the assay on SW-620, > 100 µM (inactive). Also, the GI50 with U-251 was > 100 µM (inactive).

For `O=C(O)C1Cc2c([nH]c3ccccc23)C(CCCCO)N1` (configuration not stated), the GI50 in the assay with 786-0, with A498, in the assay with ACHN, in the assay on CAKI-1, with IGROV-1 and in the assay on LOX IMVI was > 100 µM (inactive) each time. In addition, the GI50 in the assay with M14, in the assay on MCF7, in the assay with MDA-MB-435, in the assay on NCI-H460, with OVCAR-8 and in the assay on RPMI-8226 was > 100 µM (inactive) in each case. The GI50 with SF-539, in the assay with SK-MEL-28, with SK-MEL-2, with SK-MEL-5, in the assay on SK-OV-3 and in the assay with SW-620 was > 100 µM (inactive) in each case. In addition, the GI50 with U-251 was > 100 µM (inactive).

In the case of `COc1ccc2c(c1)CCc1c-2nc2cc3c(cc2c1O)OCO3`, the GI50 with 786-0, with ACHN, in the assay with CAKI-1, in the assay with IGROV-1, with LOX IMVI and in the assay on M14 was > 100 µM (inactive) in each case. Further, the GI50 in the assay with NCI-H460, in the assay with OVCAR-8, in the assay on RPMI-8226, in the assay on SF-539, in the assay with SK-MEL-28 and with SK-MEL-2 was > 100 µM (inactive) each time. In addition, the GI50 in the assay on SK-MEL-5, in the assay with SK-OV-3, with SNB-78, in the assay on SW-620 and in the assay with U-251 was > 100 µM (inactive) throughout.

As for `O=C(O)c1ccc(C(=O)c2ccccc2C(=O)O)cc1C(=O)O`, the GI50 with 786-0, with A498, in the assay on ACHN, in the assay on CAKI-1, in the assay with IGROV-1 and in the assay with LOX IMVI was > 100 µM (inactive) throughout. The GI50 with M14, in the assay with MCF7, in the assay with MDA-MB-435, in the assay with NCI-H460, with OVCAR-8 and in the assay on RPMI-8226 was > 100 µM (inactive) each time. Further, the GI50 in the assay with SF-539, in the assay on SK-MEL-28, in the assay with SK-MEL-2, in the assay with SK-MEL-5, in the assay on SK-OV-3 and in the assay on SW-620 was > 100 µM (inactive) in each case. Also, the GI50 with U-251 was > 100 µM (inactive).

Take `Oc1cccc2c(Br)ccnc12`: the GI50 is 17.1 µM (inactive) in the assay with 786-0; 7.82 µM (inactive) with A498; 2.58 µM (inactive) in the assay on ACHN; 12.3 µM (inactive) in the assay on CAKI-1; 2.12 µM (inactive) in the assay with IGROV-1; 0.713 µM (active) in the assay with LOX IMVI. Moreover, the GI50 in the assay on M14 was 1.98 µM (inactive); in the assay on MCF7 it was 4.43 µM (inactive); in the assay with MDA-MB-435 it was 5.92 µM (inactive); in the assay on NCI-H460, 3.57 µM (inactive); in the assay with OVCAR-8 it was 1.22 µM (inactive); in the assay on RPMI-8226, 0.665 µM (active). The GI50 in the assay with SF-539 is 3.63 µM (inactive); in the assay on SK-MEL-28, 12.3 µM (inactive); in the assay on SK-MEL-2, 11.4 µM (inactive); with SK-MEL-5, 2.74 µM (inactive); in the assay with SK-OV-3, 26.7 µM (inactive); with SW-620, 3.51 µM (inactive). Further, the GI50 with U-251 was 2.28 µM (inactive).
